In patent publication US20120189627A1, “Semi-Synthetic GLP-1 Peptide-FC Fusion Constructs, Methods and Uses” (priority 2007, published 2012):
Ends that are not written are not given here.

Columns and labels:
[1] = administered subcutaneously; cited from earlier work
[2] = type 2 diabetic patients, cited from earlier work
GLP-1 Receptor = biological target: T1, GLP-1 Receptor (Rattus norvegicus, UniProt P32301); assay: LANCE cAMP assay in INS-1E cells; type: cell-based; conditions: FIG. 1
T1 construct: endogenous in cells; host or cells: INS-1E cells
T1 sequence (P32301 22-463): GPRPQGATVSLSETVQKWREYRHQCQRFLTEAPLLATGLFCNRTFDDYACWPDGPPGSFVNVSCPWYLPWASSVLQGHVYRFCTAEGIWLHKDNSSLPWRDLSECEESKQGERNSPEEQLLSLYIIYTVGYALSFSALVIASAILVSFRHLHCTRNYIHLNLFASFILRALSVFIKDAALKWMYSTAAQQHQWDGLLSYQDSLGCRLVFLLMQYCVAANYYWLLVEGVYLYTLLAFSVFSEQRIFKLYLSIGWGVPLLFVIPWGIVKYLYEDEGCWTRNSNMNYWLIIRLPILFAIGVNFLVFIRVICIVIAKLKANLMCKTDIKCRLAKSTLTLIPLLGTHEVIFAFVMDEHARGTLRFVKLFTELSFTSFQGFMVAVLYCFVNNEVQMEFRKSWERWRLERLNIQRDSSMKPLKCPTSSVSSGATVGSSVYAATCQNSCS
Protocol: The peptide-conjugates were tested for activity using the cAMP assay which measures cAMP produced upon modulation of adenylyl cyclase activity by GPCRs. • cAMP Assay The LANCE™ cAMP assay (Hemmila I. 1999. LANCE™: Homogeneous Assay Platform for HTS. J Biomol Screen. 4(6), 303-308) is a homogeneous time-resolved fluorescence resonance energy transfer (TR-FRET) immunoassay. The assay is based on the competition between a europium-labeled cAMP tracer and sample cAMP for binding sites on cAMP-specific antibodies labeled with the dye Alexa Fluor® 647. The europium-labeled tracer complex is formed by the tight interaction between Biotin-cAMP and streptavidin labeled with Europium-W8044 chelate. When antibodies are bound to the Eu-SA/b-cAMP tracer, light pulse 340 nm excites the Eu-chelate molecules of the tracer. […] The fluorescence intensity measure at 665 nm will decrease in the presence of cAMP from the test samples and resulting signals will be inversely proportional to the cAMP concentration of a sample (LANCE cAMP manual). • Cells and Assay. […]
For the assay, INS-1E cells were plated at confluence in 96-well plates (Costar 3610) and allowed to recover for 4 days in normal growth media. […] The plates were incubated at room temperature for 1 hour and then fluorescence intensity was measured at 665 nm. Cyclic AMP concentrations were determined against a standard curve.

For “GLP-1 (7-36) amide: GLP-1 (7-36) amide, GLP-1 peptide of the background section (HAEGTFTSDVSSYLEGQAAKEFIAWLVKGR-NH2; UniProt P01275 98-127, looked up)”, the time action [1] is given as “about 50 minutes”.

In the case of “GLP-1: Glucagon like peptide-1, peptide secreted from the L-cells of the intestine; given as six-week infusion (HAEGTFTSDVSSYLEGQAAKEFIAWLVKGRG-NH2; listed as Homo sapiens)”, the “fasting and 8-hour mean plasma glucose levels” value ([2]; six-week infusion) is given as “lowered” and the β-cell function [2] is given as “improvement”.

With “His-[D-Ala]-Glu-Gly-Thr-Phe-Thr-Ser-Asp-Val-Ser-Ser-Tyr-Leu-Glu-Gly-Gln-Ala-Ala-Lys-Glu-Phe-Ile-Ala-Trp-Leu-Val-Lys-Gly-Arg-Gly-(N-3-aminopropyl)-PEG3-NH—CO—CH2—NH—NH2 [Peptide 1]” the “bioactivity: ability to stimulate cAMP compared to wild-type GLP-1” value (GLP-1 Receptor) was “no loss in bioactivity”.
